How the values were obtained:
[1] = molecular target: T1, glycine binding site of the NMDA receptor channel (Rattus norvegicus, UniProt P35439); experiment: Receptor binding (glycine binding site of the NMDA receptor channel), (3H)-MDL 105.519 displacement on brain membrane homogenates; details: for Displacement (%, 10 μmol/l): displacement of (3H)-MDL 105.519 at 10 μmol/l of substance; for Ki: rat cortex/hippocampus membranes, 1 nmol/l (3H)-MDL 105.519, mean of 3 independent experiments
T1 construct: from tissue; host or cells: rat brain cortex and hippocampus membrane homogenate (male Wistar rats)
Procedure: Receptor binding (glycine binding site of the NMDA receptor channel)
The tests for determining the affinity of the compounds of formula I according to the invention for the glycine binding site of the NMDA receptor channel were carried out on brain membrane homogenates (homogenate of the cortex and hippocampus areas of the brain of male rats, Wistar strain) [B. M. Baron, B. W. Siegel, B. L. Harrison, R. S. Gross, C. Hawes and P. Towers, Journal Of Pharmacology and Experimental Therapeutics, vol. 279, p. 62, 1996].
For this purpose, the cortex and hippocampus were freed without cutting from freshly removed rat brains, homogenized in 5 mmol/l TRIS acetate buffer, 0.32 mol/l sucrose, pH 7.4 (10 ml/g of fresh weight), using a Potter homogenizer (Braun/Melsungen, 10 piston strokes at 500 rpm), with ice cooling, and then centrifuged for 10 minutes at 1000 g and 4° C. The first supernatant was collected and the sediment was homogenized again with 5 mmol/l TRIS acetate buffer, 0.32 mol/l sucrose, pH 7.4 (5 ml/g of original fresh weight), using the Potter homogenizer (10 piston strokes at 500 rpm), with ice cooling, and centrifuged for 10 minutes at 1000 g and 4° C. The resulting supernatant was combined with the supernatant from the first centrifugation and centrifuged at 17,000 g for 20 minutes at 4° C. The supernatant after this centrifugation was discarded and the membrane sediment was taken up with 5 mmol/l TRIS acetate buffer, pH 8.0 (20 ml/g of original fresh weight), and homogenized with 10 piston strokes at 500 rpm.
The membrane homogenate was then incubated for 1 hour at 4° C. and centrifuged for 30 minutes at 50,000 g and 4° C. The supernatant was discarded and the centrifuge tube containing the membrane sediment was sealed with Parafilm and frozen for 24 hours at −20° C. On the following day the membrane sediment was thawed, taken up with ice-cold 5 mmol/l TRIS acetate buffer, 0.1% saponin (w/v), pH 7.0 (10 ml/g of original fresh weight), homogenized with 10 piston strokes at 500 rpm and then centrifuged for 20 minutes at 50,000 g and 4° C. The resulting supernatant was discarded and the sediment was taken up in a small volume with 5 mmol/l TRIS acetate buffer, pH 7.0 (approximately 2 ml/g of original fresh weight), and homogenized again with 10 piston strokes at 500 rpm. After determination of the protein content, the membrane homogenate was adjusted to a protein concentration of 10 mg protein/ml with 5 mmol/l TRIS acetate buffer, pH 7.0, and frozen in aliquots until tested.
For the receptor binding test, aliquots were thawed, diluted to 1:10 with 5 mmol/l TRIS acetate buffer, pH 7.0, homogenized with 10 piston strokes at 500 rpm using the Potter homogenizer (10 piston strokes at 500 rpm), with ice cooling, and centrifuged for 60 minutes at 55,000 g and 4° C. […]
In the binding test, 50 mmol/l TRIS acetate buffer, pH 7.0, was used as the buffer and 1 nmol/l (^3H)-MDL 105.519 (B. M. Baron et al., 1996) was used as the radioactive ligand. The proportion of non-specific binding was determined in the presence of 1 mmol/l glycine.
In other preparations the compounds according to the invention were added in concentration series and the displacement of the radioactive ligand from its specific binding to the glycine binding site of the NMDA receptor channel was measured. […]

AMPA receptor channels = experiment: AMPA-induced ionic fluxes on RNA-injected Xenopus oocytes (two-electrode voltage clamp); assay type: cell-based, rat; details: 10 μmol/l compound, AMPA 100 μmol/l, n = 2
[2] = system: formalin-induced nociception; experiment: Formalin test on the rat (second phase); assay type: in vivo; details: late phase
Procedure: The experiments for determining the antinociceptive action of the compounds of formula I according to the invention were performed in the formalin test on male rats (Sprague-Dawley, 150-170 g).
In the formalin test a distinction is made between the first (early) phase (0-15 min after the formalin injection) and the second (late) phase (15-60 min after the formalin injection) (D. Dubuisson, S. G. Dennis, Pain, 4, 161-174 (1977)). The early phase represents a model for acute pain as a direct reaction to the formalin injection, while the late phase is regarded as a model for persistent (chronic) pain (T. J. Coderre, J. Katz, A. L. Vaccarino, R. Melzack, Pain, vol. 52, p. 259, 1993). […]
A single subcutaneous formalin injection (50 μl, 5%) in the dorsal side of the right back paw of free-moving experimental animals induced a nociceptive reaction which is represented by the following behavioral parameters: lifting and holding of the affected paw (score 1), shaking or twitching (score 2), licking and biting (score 3). The differing modes of behavior triggered by the formalin injection were recorded continuously by observing the animals in the late phase of the formalin test, and differently weighted in an evaluation. Normal behavior, where the animal distributes its weight evenly over all four paws, was recorded as a score of 0. […]

| Compound | Displacement (%, 10 μmol/l) [1] | Ki [1] | AMPA-induced ionic fluxes Inhibition at 10 μmol/l of the compounds according to the invention (AMPA receptor channels) | % inhibition of the formalin-induced nociception ([2]; i.p., 21.5 mg/kg) | % inhibition of the formalin-induced nociception ([2]; i.v., 68.1 mg/kg) |
| --- | --- | --- | --- | --- | --- |
| O=C(O)C1Nc2ccc(Cl)cc2C2C=CCC12 (centres unmarked) [Example 2, 8-Chloro-3a,4,5,9b-tetrahydro-3H-cyclopenta [c]quinoline-4-carboxylic acid] | 100% | 300 nM | – | – | – |
| O=C([O-])C1Nc2cc(Cl)cc(Cl)c2C2CCCC12.[Na+] (centres unmarked) [Example 54, 7,9-Dichloro-2,3,3a,4,5,9b-hexahydro-1H-cyclopenta [c]quinoline-4-carboxylate; sodium salt] | 97% | – | – | – | – |
| O=C(O)C1Nc2cc(Cl)cc(Cl)c2C2C=CCC12 (centres unmarked) [Example 1, 7,9-Dichloro-3a,4,5,9b-tetrahydro-3H-cyclopenta [c]quinoline-4-carboxylic acid] | – | – | 5.4% (n = 2) | 64.5% | – |
| O=C([O-])C1Nc2cc(Cl)cc(Cl)c2C2C=CCC12.[Na+] (centres unmarked) [Example 55, 7,9-Dichloro-3a,4,5,9b-tetrahydro-3H-cyclopenta [c]quinoline-4-carboxylate; sodium salt] | 90% | 350 nM | – | – | 56% |

Reference: patent US20040224969A1, “Salts of substituted 1,2,3,4-tetrahydroquinoline-2-carboxylic acid compounds” (Gruenenthal GmbH, priority 2001, published 2004)
